Results on 50 molecules are retold here after ChEMBL document CHEMBL5308504, “Tm Shift (DSF) assay results for EUbOPEN Chemogenomics Library” (2023).

The structures appear in SMILES notation.

One assay has as its target T1, Peregrin (Homo sapiens) (UniProt P55201).
T1 sequence (whole entry): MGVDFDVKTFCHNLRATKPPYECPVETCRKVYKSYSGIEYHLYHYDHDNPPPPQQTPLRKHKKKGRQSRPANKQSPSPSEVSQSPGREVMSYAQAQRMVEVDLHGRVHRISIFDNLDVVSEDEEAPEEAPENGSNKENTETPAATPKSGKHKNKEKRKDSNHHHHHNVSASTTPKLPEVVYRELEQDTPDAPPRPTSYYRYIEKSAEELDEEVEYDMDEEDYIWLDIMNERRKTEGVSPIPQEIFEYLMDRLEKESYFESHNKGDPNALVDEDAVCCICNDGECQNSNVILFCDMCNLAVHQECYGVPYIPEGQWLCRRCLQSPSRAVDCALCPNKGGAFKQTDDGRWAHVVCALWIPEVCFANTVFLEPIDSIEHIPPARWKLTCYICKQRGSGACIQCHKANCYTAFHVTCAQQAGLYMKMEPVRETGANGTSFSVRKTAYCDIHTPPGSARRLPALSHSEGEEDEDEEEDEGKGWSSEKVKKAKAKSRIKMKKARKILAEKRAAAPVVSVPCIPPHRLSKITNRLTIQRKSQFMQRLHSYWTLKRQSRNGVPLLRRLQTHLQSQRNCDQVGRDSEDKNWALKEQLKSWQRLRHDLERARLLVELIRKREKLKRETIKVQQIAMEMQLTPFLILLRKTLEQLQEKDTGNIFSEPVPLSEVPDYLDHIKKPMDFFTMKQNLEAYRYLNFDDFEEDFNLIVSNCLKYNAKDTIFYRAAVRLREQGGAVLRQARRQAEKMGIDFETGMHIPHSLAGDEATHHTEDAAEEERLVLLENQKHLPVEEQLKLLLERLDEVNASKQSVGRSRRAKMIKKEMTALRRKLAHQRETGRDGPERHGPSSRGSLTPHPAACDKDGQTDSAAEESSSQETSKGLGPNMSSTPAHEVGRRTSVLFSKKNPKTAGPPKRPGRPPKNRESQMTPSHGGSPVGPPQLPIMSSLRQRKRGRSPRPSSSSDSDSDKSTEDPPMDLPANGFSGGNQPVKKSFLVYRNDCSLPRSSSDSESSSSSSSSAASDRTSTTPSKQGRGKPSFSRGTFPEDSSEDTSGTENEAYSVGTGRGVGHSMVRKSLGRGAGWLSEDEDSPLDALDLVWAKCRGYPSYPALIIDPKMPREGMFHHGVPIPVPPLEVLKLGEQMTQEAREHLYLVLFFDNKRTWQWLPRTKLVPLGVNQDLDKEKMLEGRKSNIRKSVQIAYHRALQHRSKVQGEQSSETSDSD
To be noted: Compound concentration 20.0 uM, Protein concentration 2.0 uM, Result type QC Liability.

Assay [1] deals with Fibroblast growth factor receptor 3 (Homo sapiens) (UniProt P22607). As to conditions: Compound concentration 20.0 uM, Protein concentration 2.0 uM, Result type QC Liability.
Fibroblast growth factor receptor 3 (Homo sapiens), sequence (P22607 23-806 limits assumed): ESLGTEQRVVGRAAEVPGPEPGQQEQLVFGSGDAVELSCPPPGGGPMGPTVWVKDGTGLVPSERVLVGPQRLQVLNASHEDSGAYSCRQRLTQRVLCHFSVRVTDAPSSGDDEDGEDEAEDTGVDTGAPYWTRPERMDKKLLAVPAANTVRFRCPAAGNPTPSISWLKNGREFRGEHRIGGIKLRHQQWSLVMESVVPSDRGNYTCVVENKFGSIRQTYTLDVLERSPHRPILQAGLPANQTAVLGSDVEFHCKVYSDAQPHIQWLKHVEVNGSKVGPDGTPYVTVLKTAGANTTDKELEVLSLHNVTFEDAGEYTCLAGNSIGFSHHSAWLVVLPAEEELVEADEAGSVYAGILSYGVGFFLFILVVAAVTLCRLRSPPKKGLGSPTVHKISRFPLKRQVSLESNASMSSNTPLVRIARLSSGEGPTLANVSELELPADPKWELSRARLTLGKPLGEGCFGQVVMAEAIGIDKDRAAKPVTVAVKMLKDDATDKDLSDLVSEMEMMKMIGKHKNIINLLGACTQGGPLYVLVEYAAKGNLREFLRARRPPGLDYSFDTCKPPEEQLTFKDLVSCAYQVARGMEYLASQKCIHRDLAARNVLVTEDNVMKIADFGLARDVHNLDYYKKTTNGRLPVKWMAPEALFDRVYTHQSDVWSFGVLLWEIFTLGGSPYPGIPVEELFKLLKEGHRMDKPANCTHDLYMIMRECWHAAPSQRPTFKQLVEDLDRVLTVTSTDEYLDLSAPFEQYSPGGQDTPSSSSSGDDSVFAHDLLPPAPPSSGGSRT
Description: Thermal Shift Assay. Domain: start/stop: P449-E759

As for `Cn1c(C2(NC(=O)c3ccc(NCC4CCCCC4)nc3)CCC2)nc2ccc(/C=C/C(=O)O)cc21`, the ΔTm is -2.12 °C at Peregrin (Homo sapiens) and 1.03 °C in assay [1].

Regarding `C[C@@H](CN1CC[C@@]2(C)c3cccc(O)c3C[C@@H]1C2(C)C)OCc1ccccc1`, the ΔTm was -1.96 °C at Peregrin (Homo sapiens) and 1.19 °C in assay [1].

In the case of `Cc1nn(-c2ccccc2)c(Nc2ccccc2C(=O)O)c1-c1cc2nccnc2c(F)c1F`, the ΔTm is -2.93 °C on Peregrin (Homo sapiens) and 1.95 °C in assay [1].

Turning to `NC(=O)c1ccccc1Nc1nc(-c2ccc(N3CCOCC3)cc2)cc2ncccc12`, the ΔTm on Peregrin (Homo sapiens) was -0.11 °C; in assay [1], 4.32 °C.

As to `Cc1cnc(Nc2ccc(C(=O)N3CCN(C)CC3)cc2)nc1N[C@@H]1CCC[C@@H]1C(N)=O`, the ΔTm was -1.57 °C at Peregrin (Homo sapiens) and 7.25 °C in assay [1].

With `C[C@H](CCC(=O)O)[C@H]1CC[C@H]2[C@@H]3[C@H](O)C[C@@H]4C[C@H](O)CC[C@]4(C)[C@H]3C[C@H](O)[C@]12C`, the ΔTm at Peregrin (Homo sapiens) was -2.19 °C; in assay [1] it was 0.75 °C.

With `O=C(O)C[C@H]1CC[C@H](c2ccc(NC(=O)c3nnc(Nc4ccc(F)c(F)c4)o3)cc2)CC1`, the ΔTm at Peregrin (Homo sapiens) was -2.89 °C; in assay [1] it was 0.79 °C.

With `COC(=O)c1ccc2c(c1)NC(=O)/C2=C(\Nc1ccc(-c2nccn2C)cc1)c1ccccc1`, the ΔTm is -1.36 °C on Peregrin (Homo sapiens) and 6.61 °C in assay [1].

On to `CCC(=O)O[C@@H](OP(=O)(CCCCc1ccccc1)CC(=O)N1C[C@H](C2CCCCC2)C[C@H]1C(=O)O)C(C)C` (stereo not given in full), for which the thermal shift (ΔTm) at Peregrin (Homo sapiens) is -1.88 °C; in assay [1] it was 0.42 °C.

As for `CN1CCCN(C(=O)c2cccc(-c3ccc(/C=C4/C(=O)Nc5ccc(Cl)cc54)o3)c2)CC1`, the ΔTm on Peregrin (Homo sapiens) was -2.53 °C; in assay [1], 2.18 °C.

`COCc1c(-c2cc3cc(C)cc(OC)c3s2)c2c(N)ncnn2c1CN[C@@H]1CCNC1=O`: the results for the thermal shift (ΔTm) (at Peregrin (Homo sapiens); in assay [1]) were -2.51 °C and 6.99 °C, respectively.

As to `CC(=O)c1ccc2c(c1)/C(=C(/Nc1cccc(C#N)c1)c1ccc3c(c1)OCCO3)C(=O)N2`, the thermal shift (ΔTm) on Peregrin (Homo sapiens) was -0.95 °C; in assay [1], 4 °C.

Take `Cc1ccc(NC(=O)c2ccc3c(c2)OCCO3)cc1NC(=O)c1ccc2nc(OCCN3CCCC3)ccc2c1`: the ΔTm at Peregrin (Homo sapiens) is -1.27 °C; in assay [1], 0.47 °C.

As for `CN1C(=O)Cc2ccc(-c3ccc(C[C@@H](C#N)NC(=O)[C@H]4N[C@@H]5CC[C@H]4C5)c(F)c3)cc21`, the values for the thermal shift (ΔTm) (at Peregrin (Homo sapiens); in assay [1]) were 0.36 °C and 0.73 °C, respectively.

For `COc1cc(F)ccc1-c1ncnc(Nc2cccc(C[S@](C)(=N)=O)c2)n1`, the ΔTm on Peregrin (Homo sapiens) is -1.17 °C; in assay [1], 1.31 °C.

`COc1ccccc1[C@@H]1CNCCC12CCN(C(=O)[C@](OC)(c1ccccc1)C(F)(F)F)CC2`: the ΔTm at Peregrin (Homo sapiens) is -1.57 °C; in assay [1], 0.45 °C.

Take `C=CC(=O)Nc1cc(-c2nn(C3CCC(N4CCN(C(C)=O)CC4)CC3)c3ncnc(N)c23)ccc1Oc1ccccc1` (stereo not given): the shift in melting temperature (ΔTm) on Peregrin (Homo sapiens) is -1.27 °C; in assay [1], 1.74 °C.

Turning to `CC(=O)Nc1nc(C)c(S(=O)(=O)Nc2ccc(C(O)(C(F)(F)F)C(F)(F)F)cc2)s1`, the thermal shift (ΔTm) at Peregrin (Homo sapiens) was -0.9 °C; in assay [1] it was 0.63 °C.

For the molecule `O=C1NC(=NCc2cccs2)SC1=Cc1ccc2ncccc2c1`, the ΔTm is -1.16 °C on Peregrin (Homo sapiens) and 0.61 °C in assay [1].

In the case of `CC(C)[C@H](CO)Nc1nc(Nc2ccc(C(=O)O)c(Cl)c2)c2ncn(C(C)C)c2n1`, the ΔTm on Peregrin (Homo sapiens) came out at 0.06 °C; in assay [1], 4.45 °C.

Consider `CCc1ccccc1C(=O)Nc1n[nH]c2c(C)c(F)c(C3C(C#N)=C(C)N(C)C(C)=C3C#N)cc12`, for which the shift in melting temperature (ΔTm) at Peregrin (Homo sapiens) is -1.74 °C; in assay [1], 2.59 °C.

Consider `COc1cc(O)c(C(CC(=O)N2C[C@H](C)C[C@H](C)C2)c2ccc3c(c2)OCO3)c(OC)c1` (stereo not given in full), for which the results for the ΔTm (on Peregrin (Homo sapiens); in assay [1]) were 1.95 °C and 0.97 °C, respectively.

For `Cc1ccc2c(NS(=O)(=O)c3ccccc3Cl)cccc2c1Oc1ncccc1-c1ccnc(N[C@H]2CCCNC2)n1`, the figures for the shift in melting temperature (ΔTm) (at Peregrin (Homo sapiens); in assay [1]) were -3.81 °C and 0.02 °C, respectively.

For `COc1c(NC(=O)c2cc3cccc(Oc4ccnc(C(=O)N5CCN(C)CC5)c4)c3n2C)cc(C(C)(C)C)cc1NS(C)(=O)=O`, the ΔTm at Peregrin (Homo sapiens) was -2.38 °C; in assay [1] it was 1.12 °C.

`C[S+]([O-])c1ccc(-c2nc(-c3cccc(I)c3)c(-c3ccncc3)[nH]2)cc1` (stereo not given): the values for the ΔTm (at Peregrin (Homo sapiens); in assay [1]) were -1.44 °C and -1.51 °C, respectively.

With `Fc1ccc(-c2nc(-c3c(F)cccc3F)[nH]c2-c2ccncc2)cc1`, the results for the ΔTm (at Peregrin (Homo sapiens); in assay [1]) were 0.63 °C and 2.21 °C, respectively.

As for `O=C(Nc1ccnc(NC(=O)C2CC2)c1)c1c(Cl)cccc1Cl`, the ΔTm was -1.28 °C on Peregrin (Homo sapiens) and 3.21 °C in assay [1].

For the molecule `COc1cc(C)c(S(=O)(=O)N(C)CCOCC(=O)N(C)[C@H]2CCC[C@@H](N3CCN(C)CC3)C2)c(C)c1`, the ΔTm at Peregrin (Homo sapiens) is -2.36 °C; in assay [1], 0.64 °C.

As to `COc1c(OCCCN2CCOCC2)ccc2c1N=C(NC(=O)c1cnc(N)nc1)N1CCN=C21`, the results for the ΔTm (at Peregrin (Homo sapiens); in assay [1]) were -0.93 °C and 0.63 °C, respectively.

In the case of `CCN1C(=O)/C(=C(\NC2CCN(C)CC2)c2ccc3c(c2)OCO3)c2cc(C(C)=O)ccc21`, the ΔTm was -1.89 °C at Peregrin (Homo sapiens) and 1.13 °C in assay [1].

On to `Cc1cc(C2CCCNC2)ccc1Nc1ncc(Br)c(NCc2cccc3c2C(C)(C)C(=O)N3)n1` (stereo not given), for which the ΔTm on Peregrin (Homo sapiens) is -1.21 °C; in assay [1] it was 2.52 °C.

`Oc1c(-c2cccnc2)cnn1-c1ccccn1`: the results for the ΔTm (on Peregrin (Homo sapiens); in assay [1]) were -1.78 °C and 0.56 °C, respectively.

For the molecule `CCCc1c(OCCCOc2ccc(OCC(=O)O)cc2)ccc(C(C)=O)c1O`, the ΔTm on Peregrin (Homo sapiens) was -1.78 °C; in assay [1], 0.12 °C.

For `O=C(O)CCC/C=C\C[C@@H]1[C@@H](/C=C/[C@@H](O)COc2cccc(C(F)(F)F)c2)[C@H](O)C[C@@H]1O`, the ΔTm at Peregrin (Homo sapiens) is -2.28 °C; in assay [1] it was 0.51 °C.

As for `CCO[C@H](COc1ccc(C(F)(F)F)cc1)CSc1ccc(OCC(=O)O)c(C)c1`, the ΔTm was -0.87 °C at Peregrin (Homo sapiens) and 0.48 °C in assay [1].

As for `CN(C)[C@H]1C[C@H](n2cnc(-c3ccc(F)cn3)c2-c2ccnc3[nH]ccc23)C1`, the values for the ΔTm (on Peregrin (Homo sapiens); in assay [1]) were -0.35 °C and 0.61 °C, respectively.

In the case of `N#Cc1cccc(-c2c[nH]c3ncnc(N4CCOCC4)c23)c1`, the results for the thermal shift (ΔTm) (on Peregrin (Homo sapiens); in assay [1]) were -1.1 °C and 2.14 °C, respectively.

With `CCCCOc1c(C(=O)c2c(F)cc(C)cc2F)c[nH]c2nncc1-2`, the figures for the shift in melting temperature (ΔTm) (on Peregrin (Homo sapiens); in assay [1]) were -1.13 °C and 0.71 °C, respectively.

Take `CN(C)c1ccc(-c2cc3ncccc3c(OCCCCO)n2)cc1`: the values for the ΔTm (at Peregrin (Homo sapiens); in assay [1]) were -2.48 °C and 3.37 °C, respectively.

With `Nc1nccc(-c2c(-c3ccc(F)cc3)ncn2C2CCN(Cc3ccon3)CC2)n1`, the shift in melting temperature (ΔTm) at Peregrin (Homo sapiens) is -1.77 °C; in assay [1], 0.95 °C.

Consider `Cc1c(-c2c(F)cc(C(N)=O)c3[nH]c4c(c23)CC[C@H](C(C)(C)O)C4)cccc1-n1c(=O)c2cccc(F)c2n(C)c1=O`, for which the shift in melting temperature (ΔTm) at Peregrin (Homo sapiens) was -3.49 °C; in assay [1], -3.27 °C.

`Cn1cncc1-c1cn(-c2cccc(C(=O)Nc3cccc(C(F)(F)F)c3)c2)nn1`: the shift in melting temperature (ΔTm) at Peregrin (Homo sapiens) is -1.49 °C; in assay [1], -9.32 °C.

With `CNc1oc(-c2cccc3ccccc23)nc1C#N`, the ΔTm at Peregrin (Homo sapiens) is -2.17 °C; in assay [1], 0.61 °C.

For `CS(=O)(=O)CCNCc1ccc(-c2ccc3ncnc(Nc4ccc(OCc5cccc(F)c5)c(Cl)c4)c3c2)o1`, the figures for the ΔTm (on Peregrin (Homo sapiens); in assay [1]) were -1.41 °C and 0.79 °C, respectively.

Take `Cc1ncsc1-c1ccc(CNC(=O)[C@@H]2C[C@@H](O)CN2C(=O)[C@@H](NC(=O)CCCCNC(=O)c2ccc(-c3ccc(N4CCN(C)CC4)c(NC(=O)c4c[nH]c(=O)cc4C(F)(F)F)c3)cc2)C(C)(C)C)cc1`: the thermal shift (ΔTm) is 1.18 °C on Peregrin (Homo sapiens) and -2.23 °C in assay [1].

For `COc1ccc(S(=O)(=O)N2CCOCC2)cc1Nc1ccc2c(n1)N(C1CCOCC1)[C@H](C)C(=O)N2C`, the values for the thermal shift (ΔTm) (at Peregrin (Homo sapiens); in assay [1]) were 0.21 °C and 0.08 °C, respectively.

Turning to `N#CN1CC[C@@H](C(=O)Nc2nc3c(s2)CN(C(=O)CN=[N+]=[N-])CC3)C1`, the results for the ΔTm (at Peregrin (Homo sapiens); in assay [1]) were -1.31 °C and 0.98 °C, respectively.

In the case of `O=C(NC1CCNCC1)c1n[nH]cc1NC(=O)c1c(Cl)cccc1Cl`, the ΔTm is -1.28 °C on Peregrin (Homo sapiens) and 0.78 °C in assay [1].

In the case of `Cc1cc([N+](=O)[O-])c(NS(=O)(=O)c2cccc(C(=O)O)c2)cc1-c1cccnc1`, the shift in melting temperature (ΔTm) is 0.37 °C at Peregrin (Homo sapiens) and 0.67 °C in assay [1].

Regarding `Cc1cc2c(ncn2C2(C)CN(C(=O)c3ccn(CC4CCN([C@H]5C=CCCCC5)CC4)c3)C2)c(N)n1`, the ΔTm at Peregrin (Homo sapiens) was -0.47 °C; in assay [1] it was 0.4 °C.
